For orientation: IC50 means the concentration that inhibits the measured activity by half.

Structures are written as SMILES.

One test has as its target T1, Full length Akt3 (Homo sapiens, UniProt Q9Y243).
T1 construct: Full length Akt1 (cat #P2999), Akt2 (cat #PV3184), Akt3 (cat #PV3185); purchased PerkinElmer PV3185
The experiment in a line: In vitro Akt kinase enzymatic assay (HTRF), Akt3. The settings on record: 0.6 nM Akt3, substrate solution with 5 mM ATP, 25° C. 1 hr. The test is classed as biochemical. The gist of the method: (§1)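 Full-length enzyme (0.4 nM Akt1 or 0.6 nM Akt2/Akt3 in the enzyme solution) was combined with a substrate solution of 0.1 μM ULight-Crosstide plus 5 mM ATP in pH 7.8 HEPES/MgCl2/DTT/Tween20 buffer and reacted 1 hr at 25° C. The EDTA stop contained Eu anti-phospho-Crosstide; IC50 was fitted from 11-point HTRF inhibition curves.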

A further test has as its target T2, Full length PKA (Homo sapiens, UniProt P17612).
T2 construct: Full length PKA (cat #P2912); purchased Invitrogen P2912
The experiment in a line: PKA in vitro enzymatic assay (HTRF). The class given is biochemical. The settings on record: 0.035 nM enzyme solution, substrate solution with 5 mM ATP, 25° C. 1 hr. The gist of the method:
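IC50 came from curve fitting of percent inhibition across an 11-point, 3-fold compound series, with HTRF read after EDTA quench and Tb-labelled p-S133 antibody detection. Enzyme (0.035 nM solution) and substrate (0.1 μM fluorescein-CREBtide solution containing 5 mM ATP) reacted for 1 h at 25°C. The buffer was HEPES 50 mM pH 7.8 with 10 mM MgCl2, 5 mM DTT and 0.005% Tween20.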

Test [1] deals with LNCaP cells (human prostate tumor cell line). Briefly: Akt LNCaP proliferation assay (MTS). The test is classed as cell-based. The following applies: 48 hours. The method, then:
LNCaP cells (human prostate tumor cell line) were plated in 96 well plates (COSTAR, Corning, N.Y.) in 50 μL at 10,000 cells/well in RPMI (Media Tech, Manassas, Va.), 2% fetal bovine serum (Hyclone/Thermo, Logan, Utah) and incubated overnight at 37° C., 5% CO2. […] of compound solution were added at final concentrations of 1000 nM to 0.5 nM in 3 fold dilutions for IC50 determination and plates further incubated for 48 hours. 100 μL of Cell Titer 96® Aqueous reagent, from an MTS colorimetric method for determining the number of viable cells in proliferation (Cell titer 96, Promega, Madison, Wis.) was added for 2 hours at 37° C., 5% CO2. Each plate was mixed well and read on a SpectroMax M5 automated plate reader (Molecular Devices, Sunnyvale Calif.). The ability of the compound to inhibit proliferation was reported as the inhibitor concentration required for 50% inhibition (IC50 values) of total cell proliferation. See Table 8 for data related to compounds of the examples.

The target of the next test is T3, Full length Akt2 (Homo sapiens, UniProt P31751).
T3 construct: Full length Akt1 (cat #P2999), Akt2 (cat #PV3184); purchased PerkinElmer PV3184
T3 sequence (P31751 whole entry): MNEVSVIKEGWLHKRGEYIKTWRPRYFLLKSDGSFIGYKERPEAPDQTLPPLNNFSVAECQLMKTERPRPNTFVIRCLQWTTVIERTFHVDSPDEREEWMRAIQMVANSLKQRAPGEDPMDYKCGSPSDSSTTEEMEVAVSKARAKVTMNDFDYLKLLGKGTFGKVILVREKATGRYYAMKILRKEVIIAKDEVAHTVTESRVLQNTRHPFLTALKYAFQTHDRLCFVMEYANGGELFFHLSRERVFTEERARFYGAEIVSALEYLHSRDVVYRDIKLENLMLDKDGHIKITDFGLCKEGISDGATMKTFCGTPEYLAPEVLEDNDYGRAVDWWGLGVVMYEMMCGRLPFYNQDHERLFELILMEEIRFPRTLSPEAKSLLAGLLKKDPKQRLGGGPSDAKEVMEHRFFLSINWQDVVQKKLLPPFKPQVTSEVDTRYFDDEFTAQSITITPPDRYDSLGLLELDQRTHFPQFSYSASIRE
Briefly: In vitro Akt kinase enzymatic assay (HTRF), Akt2. The settings on record: 0.6 nM Akt2, substrate solution with 5 mM ATP, 25° C. 1 hr. The test is classed as biochemical. The method, boiled down: as §1

A further test deals with T4, Full length Akt1 (Homo sapiens, UniProt P31749).
T4 construct: Full length Akt1 (cat #P2999); purchased PerkinElmer P2999
T4 sequence (P31749 whole entry): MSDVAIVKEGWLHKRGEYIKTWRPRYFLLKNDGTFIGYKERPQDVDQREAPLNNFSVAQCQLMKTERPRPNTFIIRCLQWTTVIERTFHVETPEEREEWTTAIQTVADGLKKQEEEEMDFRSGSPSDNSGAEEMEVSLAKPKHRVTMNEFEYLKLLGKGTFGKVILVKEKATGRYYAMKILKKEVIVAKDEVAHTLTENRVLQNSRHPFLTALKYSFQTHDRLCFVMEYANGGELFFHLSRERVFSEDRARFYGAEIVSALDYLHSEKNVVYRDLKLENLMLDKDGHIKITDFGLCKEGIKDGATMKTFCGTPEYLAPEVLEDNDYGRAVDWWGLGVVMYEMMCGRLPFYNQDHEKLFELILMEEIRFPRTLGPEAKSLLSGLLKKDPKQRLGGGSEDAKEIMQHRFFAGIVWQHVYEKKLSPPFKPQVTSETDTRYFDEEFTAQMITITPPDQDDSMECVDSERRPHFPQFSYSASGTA
Briefly: In vitro Akt kinase enzymatic assay (HTRF), Akt1. The test is classed as biochemical. The settings on record: 0.4 nM Akt1, substrate solution with 5 mM ATP, 25° C. 1 hr. The gist of the method:
as §1

The mark [2] stands for this setting: 2% fetal bovine serum, class symbols.
Where [3] appears, read: given as a bound, final concentrations 1000 nM to 0.5 nM.

T1 sequence (Q9Y243 whole entry): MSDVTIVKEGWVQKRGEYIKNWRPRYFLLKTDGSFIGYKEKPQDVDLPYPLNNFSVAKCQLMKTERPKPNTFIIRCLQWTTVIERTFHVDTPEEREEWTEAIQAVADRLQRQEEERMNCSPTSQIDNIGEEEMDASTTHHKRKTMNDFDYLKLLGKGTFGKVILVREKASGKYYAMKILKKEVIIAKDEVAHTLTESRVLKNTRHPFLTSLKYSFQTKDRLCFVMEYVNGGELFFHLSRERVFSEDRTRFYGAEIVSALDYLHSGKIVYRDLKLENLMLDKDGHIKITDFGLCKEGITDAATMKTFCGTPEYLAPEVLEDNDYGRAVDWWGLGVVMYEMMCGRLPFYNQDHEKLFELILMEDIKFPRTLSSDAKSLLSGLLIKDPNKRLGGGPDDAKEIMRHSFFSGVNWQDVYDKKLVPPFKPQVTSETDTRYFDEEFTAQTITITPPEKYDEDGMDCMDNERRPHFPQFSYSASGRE

Turning to `C#Cc1cccc(C[C@@H](CN)N2Cc3cc(-c4c(Cl)cnn4C)ccc3C2=O)c1` [Example 89, 2-[(1S)-2-amino-1-(3-ethynylbenzyl)ethyl]-5-(4-chloro-1-methyl-1H-pyrazol-5-yl)isoindolin-1-one], the half-maximal inhibitory concentration (IC50) against Full length Akt3 is < 500 nM; against Full length PKA, 500 to 5000 nM; in test [1] (setting [2]), < 500 nM; on Full length Akt2, < 500 nM; against Full length Akt1, < 500 nM.
Take `Cn1ncc(Cl)c1-c1ccc2c(c1)CN([C@H](CN)Cc1cccc(-c3cncnc3)c1)C2=O` [Example 74, 2-[(1S)-2-amino-1-(3-pyrimidin-5-ylbenzyl)ethyl]-5-(4-chloro-1-methyl-1H-pyrazol-5-yl)isoindolin-1-one]: the concentration for half-maximal inhibition (IC50) is > 5000 nM on Full length Akt3; > 5000 nM at Full length PKA; > 1000 nM in test [1] (setting [3]); > 5000 nM against Full length Akt2; 500 to 5000 nM on Full length Akt1.
As to `Cn1ncc(Cl)c1-c1ccc2c(c1)CN([C@H](CN)Cc1cccc(-c3cccnc3)c1)C2=O` [Example 73, 2-[(1S)-2-amino-1-(3-pyridin-3-ylbenzyl)ethyl]-5-(4-chloro-1-methyl-1H-pyrazol-5-yl)isoindolin-1-one], the IC50 was 500 to 5000 nM at Full length Akt3; > 5000 nM at Full length PKA; > 1000 nM in test [1] (setting [3]); > 5000 nM at Full length Akt2; 500 to 5000 nM against Full length Akt1.
As for `Cc1cnn(C)c1-c1ccc2c(c1)CN([C@H](CN)Cc1cccc(F)c1)C2=O` [Example 3, 2-[(1S)-2-amino-1-(3-fluorobenzyl)ethyl]-5-(4-methyl-1-methyl-1H-pyrazol-5-yl)isoindolin-1-one], the concentration for half-maximal inhibition (IC50) on Full length Akt3 was < 500 nM; against Full length PKA it was 500 to 5000 nM; in test [1] (setting [2]), < 500 nM; against Full length Akt2, < 500 nM; against Full length Akt1, < 500 nM.
`CC(C)OCc1cnn(C)c1-c1cc2c(cn1)C(=O)N([C@H](CN)Cc1cccc(F)c1)C2` [Example 95, 2-[(1S)-2-amino-1-(3-fluorobenzyl)ethyl]-6-[4-(2-propoxymethyl)-1-methyl-1H-pyrazol-5-yl]-1,2-dihydro-3H-pyrrolo[3,4-c]pyridin-3-one]: the 50% inhibitory concentration (IC50) against Full length Akt3 is < 500 nM; against Full length PKA, > 5000 nM; in test [1] (setting [2]), < 500 nM; at Full length Akt2, < 500 nM; against Full length Akt1, < 500 nM.
With `COCc1cnn(C)c1-c1cc2c(cn1)C(=O)N([C@H](CN)Cc1cc(F)cc(F)c1)C2` [Example 105, 2-[(1S)-2-amino-1-(3,5-difluoro-benzyl)ethyl]-6-(4-methoxymethyl-1-methyl-1H-pyrazol-5-yl)-1,2-dihydro-3H-pyrrolo[3,4-c]pyridin-3-one], the half-inhibitory concentration (IC50) against Full length Akt3 is < 500 nM; on Full length PKA, > 5000 nM; in test [1] (setting [2]) it was 500 to 5000 nM; against Full length Akt2, 500 to 5000 nM; against Full length Akt1 it was < 500 nM.
On to `Cn1nccc1-c1ccc2c(c1)CN([C@H](CN)Cc1cccc(C#N)c1)C2=O` [Example 75, 3-{(2S)-3-amino-2-[5-(1-methyl-1H-pyrazol-5-yl)-1-oxo-1,3-dihydro-2H-isoindol-2-yl]propyl}benzonitrile], for which the IC50 was 500 to 5000 nM on Full length Akt3; > 5000 nM against Full length PKA; < 500 nM in test [1] (setting [2]); < 500 nM on Full length Akt2; 500 to 5000 nM at Full length Akt1.
`Cn1ncc(Br)c1-c1ccc2c(c1)CN([C@H](CN)Cc1ccccc1)C2=O` [Example 57, 2-[(1S)-2-amino-1-benzyl-ethyl]-5-(4-bromo-1-methyl-1H-pyrazol-5-yl)isoindolin-1-one]: the half-inhibitory concentration (IC50) against Full length Akt3 is < 500 nM; against Full length PKA, > 5000 nM; in test [1] (setting [2]), < 500 nM; against Full length Akt2, < 500 nM; at Full length Akt1 it was < 500 nM.
Consider `Cn1nccc1-c1cc2c(cn1)C(=O)N([C@H](CN)Cc1cccc(F)c1)C2` [Example 93, 2-[(1S)-2-amino-1-(3-fluorobenzyl)ethyl]-6-(1-methyl-1H-pyrazol-5-yl)-1,2-dihydro-3H-pyrrolo[3,4-c]pyridin-3-one], for which the 50% inhibitory concentration (IC50) was < 500 nM on Full length Akt3; 500 to 5000 nM on Full length PKA; < 500 nM in test [1] (setting [2]); < 500 nM against Full length Akt2; < 500 nM against Full length Akt1.
`Cn1ncc(Br)c1-c1cc2c(cn1)C(=O)N([C@H](CN)Cc1cc(F)cc(F)c1)C2` [Example 104, 2-[(1S)-2-amino-1-(3,5-difluoro-benzyl)ethyl]-6-(4-broro-1-methyl-1H-pyrazol-5-yl)-1,2-dihydro-3H-pyrrolo[3,4-c]pyridin-3-one]: the IC50 on Full length Akt3 was < 500 nM; on Full length PKA, 500 to 5000 nM; in test [1] (setting [2]), < 500 nM; at Full length Akt2, < 500 nM; against Full length Akt1, < 500 nM.
On to `CC(C)OCc1cnn(C)c1-c1ccc2c(c1)CN([C@H](CN)Cc1ccccc1)C2=O` [Example 58, 2-[(1S)-2-amino-1-benzyl-ethyl]-5-[4-(2-propoxymethyl)-1-methyl-1H-pyrazol-5-yl]isoindolin-1-one], for which the IC50 against Full length Akt3 is < 500 nM; on Full length PKA, > 5000 nM; in test [1] (setting [2]), < 500 nM; against Full length Akt2, < 500 nM; against Full length Akt1 it was < 500 nM.
As to `Cn1ncc(Cl)c1-c1ccc2c(c1)CN([C@H](CN)Cc1ccccc1)C2=O` [Example 56, 2-[(1S)-2-amino-1-benzyl-ethyl]-5-(4-chloro-1-methyl-1H-pyrazol-5-yl)isoindolin-1-one], the IC50 against Full length Akt3 is < 500 nM; against Full length PKA, 500 to 5000 nM; in test [1] (setting [2]), < 500 nM; on Full length Akt2 it was < 500 nM; against Full length Akt1, < 500 nM.
Take `CC(C)Cn1nccc1-c1ccc2c(c1)CN([C@H](CN)Cc1cccc(F)c1)C2=O` [Example 129, 2-[(1S)-2-amino-1-(3-fluorobenzyl)ethyl]-5-(1-isobutyl-1H-pyrazol-5-yl)isoindolin-1-one]: the concentration for half-maximal inhibition (IC50) was > 5000 nM at Full length Akt3; > 5000 nM on Full length PKA; > 1000 nM in test [1] (setting [3]); > 5000 nM on Full length Akt2; 500 to 5000 nM on Full length Akt1.
Turning to `Cn1ncc(F)c1-c1ccc2c(c1)CN([C@H](CN)Cc1cccc(F)c1)C2=O` [Example 11, 2-[(1S)-2-amino-1-(3-fluorobenzyl)ethyl]-5-(4-fluoro-1-methyl-1H-pyrazol-5-yl)isoindolin-1-one], the IC50 is < 500 nM against Full length Akt3; 500 to 5000 nM against Full length PKA; < 500 nM in test [1] (setting [2]); < 500 nM against Full length Akt2; < 500 nM against Full length Akt1.
As for `Cn1nccc1-c1ccc2c(c1)CN([C@H](CN)Cc1cccc(-c3cncnc3)c1)C2=O` [Example 87, 2-[(1S)-2-amino-1-(3-pyrimidin-5-ylbenzyl)ethyl]-5-(1-methyl-1H-pyrazol-5-yl)isoindolin-1-one], the IC50 was > 5000 nM on Full length Akt3; > 5000 nM against Full length PKA; > 1000 nM in test [1] (setting [3]); > 5000 nM against Full length Akt2; 500 to 5000 nM on Full length Akt1.
For `Cn1ncc(Br)c1-c1ccc2c(c1)CN([C@H](CN)Cc1cc(F)cc(F)c1)C2=O` [Example 52, 2-[(1S)-2-amino-1-(3,5-difluorobenzyl)ethyl]-5-(4-bromo-1-methyl-1H-pyrazol-5-yl)isoindolin-1-one], the IC50 was < 500 nM against Full length Akt3; 500 to 5000 nM on Full length PKA; < 500 nM in test [1] (setting [2]); < 500 nM against Full length Akt2; < 500 nM at Full length Akt1.
Consider `Cn1ncc(Cl)c1-c1cc2c(cn1)C(=O)N([C@H](CN)Cc1cccc(F)c1)C2` [Example 92, 2-[(1S)-2-amino-1-(3-fluorobenzyl)ethyl]-6-(4-chloro-1-methyl-1H-pyrazol-5-yl)-1,2-dihydro-3H-pyrrolo[3,4-c]pyridin-3-one], for which the 50% inhibitory concentration (IC50) against Full length Akt3 is < 500 nM; on Full length PKA, 500 to 5000 nM; in test [1] (setting [2]) it was < 500 nM; on Full length Akt2 it was < 500 nM; against Full length Akt1, < 500 nM.
Regarding `Cn1ncc(Br)c1-c1ccc2c(c1)CN([C@H](CN)Cc1cccc(F)c1)C2=O` [Example 12, 2-[(1S)-2-amino-1-(3-fluorobenzyl)ethyl]-5-(4-bromo-1-methyl-1H-pyrazol-5-yl)isoindolin-1-one], the half-inhibitory concentration (IC50) at Full length Akt3 is < 500 nM; against Full length PKA it was 500 to 5000 nM; in test [1] (setting [2]) it was < 500 nM; at Full length Akt2, < 500 nM; on Full length Akt1, < 500 nM.

The values above are taken from patent publication US8895571B2, “Isoindolinone and pyrrolopyridinone derivatives as Akt inhibitors” (Incyte Corporation, priority 2011, dated 2014).
